{
  "source": "patent US20100003217A1",
  "about": "“Compounds and Pharmaceutical Compositions for the Treatment of Viral Infections” (priority 2008, published 2010)",
  "key": {"rat primary hepatocytes": {"tested_on": "rat primary hepatocytes", "test": "Metabolic disposition of [^14C]-Compound 1 and [^14C]-2′-C-methyl guanosine in rat primary hepatocytes (incubation medium, cellular extracts, nucleotide levels)", "format": "in vitro ADME, Sprague Dawley rat", "settings": "rat hepatocytes Rs458, 10 μM [^14C]-Compound 1", "procedure": "(§1) Primary hepatocytes: Freshly isolated cells from animal and human liver were obtained in suspension on ice. Cells were pelleted by centrifugation at 70-75×g (rat) or 95-90×g (monkey and human) and resuspended at 0.8 million cells per mL of platting medium (William's E supplemented with 5% FBS, 0.5% penicillin-streptomycin, 1% L-glutamine, 4 μg/mL insulin and 1 μM dexamethasone). Multi-well collagen I-coated plates (rat tail collagen type I; 12- or 6-well) were then seeded by addition of 1 mL (12-well; 0.8 million cells/well) or 2 mL (6-well; 1.6 million cells/well) of cell suspension. The plates were gently shaken to evenly distribute the cells and placed in an incubator at 37° C. for approximately 4 to 6 hours to allow cells to attach. Once cells were attached, the platting medium was removed and replaced with hepatocyte culture medium (William's E supplemented with penicillin-streptomycin, 1% L-glutamine, 1% insulin-transferrin-selenium and 0.1 μM dexamethasone). Cells were left overnight in an incubator at 37° C. to acclimatize to culture and the medium.\n(§2) Hepatocyte incubations with radiolabeled Compound 1 and 2′-C-methyl guanosine, both labeled in the C-8 position of the guanine moiety, were conducted at a final volume of 2.0 mL hepatocyte culture medium/well ([…]). Culture medium from overnight incubation of cells was removed and replaced with fresh medium, pre-warmed to 37° C., containing 1 or 10 μM [^14C]-Compound 1 ([…]) or [^14C]-2′-C-methyl guanosine (127 DPM/μmol) from a stock solution in DMSO (final DMSO concentration was 0.1%) or 50% ethanol (final ethanol concentration was 0.2%). After 1, 4, 8 and 24 hours, 0.5-1.0 mL of incubation medium was removed and stored at −20° C. until analysis (described below). The remaining medium was discarded and cell monolayers were carefully washed two times with ice-cold PBS. Following the last wash, all PBS was carefully removed and 1.0 mL of extraction solution (ice-cold 70% methanol) added. Cells were scrapped off and suspended in the extraction solution, transferred to 2 mL polypropylene microfuge tubes and intracellular contents extracted overnight at −20° C.\n(§3) Preliminary identification of putative metabolites was conducted by comparing the retention time of observed metabolites in incubation medium and cellular extracts with retention times obtained with chemically synthesized standards using the chromatography conditions described below. Further identification of 2′-C-methyl guanosine nucleotides (mono-, di- and triphosphate) was carried out by incubating cellular extract samples with alkaline phosphatase (10 units for 60 min at 37° C.) and comparing the HPLC retention times of the resulting nucleosides with that of authentic 2′-C-methyl guanosine.\n(§4) Cellular extracts were prepared by centrifugation at 16,000 RCF using an Eppendorf microcentrifuge (Eppendorf, Model 5415D) for 10 min to remove cellular debris. An aliquot of 5-10 μL of the supernatant was added to 5 mL of EcoLite™ (MP, Irvine, Calif.) liquid scintillation cocktail and radioactivity measured by liquid scintillation counting (LSC) using a Beckman Coulter LS6500 multipurpose liquid scintillation counter (Beckman Instruments, Fullerton, Calif.). The remaining sample was then dried using a Labconco refrigerated centrivap concentrator (Labconco, Kansas City, Mo.). Dry extracts were reconstituted in 120 μL of HPLC-grade water and centrifuged at 16,000 RCF using an Eppendorf microcentrifuge for 10 min. Prior to HPLC analysis (described below), radioactivity of the concentrated extracts was measured by LSC using 5 μL aliquots. Extraction recovery was then determined by comparing total radioactivity in extracts before and after drying. The remaining extract was then analyzed by HPLC with online radioactivity detection using a Flow Scintillation Analyzer Radiomatic™ 515TR. Radioactivity in the separated components was quantified by integrating the peaks using Flo-One™ Software (Perkin Elmer Life Sciences). […]"}, "[1]": {"tested_on": "human primary hepatocytes", "test": "Metabolic disposition of [^14C]-Compound 1 and [^14C]-2′-C-methyl guanosine in human primary hepatocytes (incubation medium, cellular extracts, nucleotide levels)", "format": "in vitro ADME", "procedure": "as §1, §2, §3, §4"}, "[2]": {"settings": "human hepatocytes (Hu775), 1 μM [^14C]-Compound 1, 1 h"}, "[3]": {"settings": "human hepatocytes (Hu775), 1 μM [^14C]-Compound 1, 8 h"}, "[4]": {"settings": "human hepatocytes (Hu775), 1 μM [^14C]-Compound 1, 24 h"}, "[5]": {"settings": "human hepatocytes Hu775, 1 μM [^14C]-2′-C-methyl guanosine, 1 h"}, "[6]": {"settings": "human hepatocytes Hu775, 1 μM [^14C]-2′-C-methyl guanosine, 8 h"}, "[7]": {"settings": "human hepatocytes Hu775, 1 μM [^14C]-2′-C-methyl guanosine, 24 h"}},
  "note": "Several values for one entry are separate records, joined by “and”; a condition that tells them apart may be missing. Identical values can stand only once.",
  "data": [
    {"compound": "C[C@@]1(O)[C@H](O)[C@@H](COP(=O)(O)OP(=O)(O)O)O[C@H]1n1cnc2c(=O)[nH]c(N)nc21", "note": "[Compound 6, [(2R)-2-methyl-β-D-ribofuranosyl]guanine 5′-diphosphate]", "values": [
      {"measurement": "2′-C-methyl guanosine nucleotide levels in cellular extracts", "setting": "rat primary hepatocytes; 8 h", "value": 375, "unit": "pmol/million cells"},
      {"measurement": "2′-C-methyl guanosine nucleotide levels in cellular extracts", "setting": "rat primary hepatocytes; 24 h", "value": 207, "unit": "pmol/million cells"},
      {"measurement": "metabolites observed in cellular extracts (% of total radioactivity)", "setting": "[1]; human hepatocytes (Hu759, Hu775), 10 μM [^14C]-2′-C-methyl guanosine, 1 h", "value": "0.51% and 0.63%"},
      {"measurement": "metabolites observed in cellular extracts (% of total radioactivity)", "setting": "[1]; human hepatocytes (Hu759, Hu775), 10 μM [^14C]-2′-C-methyl guanosine, 4 h", "value": "1.64% and 2.36%"},
      {"measurement": "metabolites observed in cellular extracts (% of total radioactivity)", "setting": "[1]; human hepatocytes (Hu759, Hu775), 10 μM [^14C]-2′-C-methyl guanosine, 8 h", "value": "4.54% and 3.46%"},
      {"measurement": "metabolites observed in cellular extracts (% of total radioactivity)", "setting": "[1]; human hepatocytes (Hu759, Hu775), 10 μM [^14C]-2′-C-methyl guanosine, 24 h", "value": "7.71% and 10.6%"},
      {"measurement": "metabolites observed in cellular extracts (% of total radioactivity)", "setting": "[1]; human hepatocytes (Hu759, Hu775), 10 μM [^14C]-Compound 1, 1 h", "value": "4.93% and 6.09%"},
      {"measurement": "metabolites observed in cellular extracts (% of total radioactivity)", "setting": "[1]; human hepatocytes (Hu759, Hu775), 10 μM [^14C]-Compound 1, 4 h", "value": "8.01% and 12.4%"},
      {"measurement": "metabolites observed in cellular extracts (% of total radioactivity)", "setting": "[1]; human hepatocytes (Hu759, Hu775), 10 μM [^14C]-Compound 1, 8 h", "value": "13.99% and 11.1%"},
      {"measurement": "metabolites observed in cellular extracts (% of total radioactivity)", "setting": "[1]; human hepatocytes (Hu759, Hu775), 10 μM [^14C]-Compound 1, 24 h", "value": "13.4% and 17.05%"},
      {"measurement": "2′-C-methyl guanosine nucleotide levels in cellular extracts", "setting": "[1]; human hepatocytes (Hu775), 1 μM [^14C]-Compound 1, 0 h", "value": "BLD (BLD = below limit of detection (0.02 pmol/million cells))"},
      {"measurement": "2′-C-methyl guanosine nucleotide levels in cellular extracts", "setting": "[1]; [2]", "value": 1.40, "unit": "pmol/million cells"},
      {"measurement": "metabolites observed in cellular extracts (% of total radioactivity)", "setting": "[1]; [2]", "value": 7.94, "unit": "%"},
      {"measurement": "2′-C-methyl guanosine nucleotide levels in cellular extracts", "setting": "[1]; [3]", "value": 7.70, "unit": "pmol/million cells"},
      {"measurement": "metabolites observed in cellular extracts (% of total radioactivity)", "setting": "[1]; [3]", "value": 13.0, "unit": "%"},
      {"measurement": "2′-C-methyl guanosine nucleotide levels in cellular extracts", "setting": "[1]; [4]", "value": 11.2, "unit": "pmol/million cells"},
      {"measurement": "metabolites observed in cellular extracts (% of total radioactivity)", "setting": "[1]; [4]", "value": 12.4, "unit": "%"},
      {"measurement": "2′-C-methyl guanosine nucleotide levels in cellular extracts", "setting": "[1]; human hepatocytes Hu759, 10 μM [^14C]-2′-C-methyl guanosine, 0 h", "value": 0, "unit": "pmol/million cells"},
      {"measurement": "2′-C-methyl guanosine nucleotide levels in cellular extracts", "setting": "[1]; human hepatocytes Hu759, 10 μM [^14C]-2′-C-methyl guanosine, 1 h", "value": 2.10, "unit": "pmol/million cells"},
      {"measurement": "2′-C-methyl guanosine nucleotide levels in cellular extracts", "setting": "[1]; human hepatocytes Hu759, 10 μM [^14C]-2′-C-methyl guanosine, 4 h", "value": 7.50, "unit": "pmol/million cells"},
      {"measurement": "2′-C-methyl guanosine nucleotide levels in cellular extracts", "setting": "[1]; human hepatocytes Hu759, 10 μM [^14C]-2′-C-methyl guanosine, 8 h", "value": 22.1, "unit": "pmol/million cells"},
      {"measurement": "2′-C-methyl guanosine nucleotide levels in cellular extracts", "setting": "[1]; human hepatocytes Hu759, 10 μM [^14C]-2′-C-methyl guanosine, 24 h", "value": 46.0, "unit": "pmol/million cells"},
      {"measurement": "2′-C-methyl guanosine nucleotide levels in cellular extracts", "setting": "[1]; human hepatocytes Hu759, 10 μM [^14C]-Compound 1, 0 h", "value": 0, "unit": "pmol/million cells"},
      {"measurement": "2′-C-methyl guanosine nucleotide levels in cellular extracts", "setting": "[1]; human hepatocytes Hu759, 10 μM [^14C]-Compound 1, 1 h", "value": 3.00, "unit": "pmol/million cells"},
      {"measurement": "2′-C-methyl guanosine nucleotide levels in cellular extracts", "setting": "[1]; human hepatocytes Hu759, 10 μM [^14C]-Compound 1, 4 h", "value": 21.0, "unit": "pmol/million cells"},
      {"measurement": "2′-C-methyl guanosine nucleotide levels in cellular extracts", "setting": "[1]; human hepatocytes Hu759, 10 μM [^14C]-Compound 1, 8 h", "value": 45.0, "unit": "pmol/million cells"},
      {"measurement": "2′-C-methyl guanosine nucleotide levels in cellular extracts", "setting": "[1]; human hepatocytes Hu759, 10 μM [^14C]-Compound 1, 24 h", "value": 69.0, "unit": "pmol/million cells"},
      {"measurement": "2′-C-methyl guanosine nucleotide levels in cellular extracts", "setting": "[1]; human hepatocytes Hu775, 1 μM [^14C]-2′-C-methyl guanosine, 0 h", "value": "BLD (BLD = below limit of detection (0.02 pmol/million cells))"},
      {"measurement": "2′-C-methyl guanosine nucleotide levels in cellular extracts", "setting": "[1]; [5]", "value": "BLD (BLD = below limit of detection (0.02 pmol/million cells))"},
      {"measurement": "Major metabolites observed in cellular extracts (% of total radioactivity)", "setting": "[1]; [5]", "value": "BLD (BLD = below limit of detection (30 DPM))"},
      {"measurement": "2′-C-methyl guanosine nucleotide levels in cellular extracts", "setting": "[1]; [6]", "value": 2.70, "unit": "pmol/million cells"},
      {"measurement": "Major metabolites observed in cellular extracts (% of total radioactivity)", "setting": "[1]; [6]", "value": "6.83 % of total radioactivity"},
      {"measurement": "2′-C-methyl guanosine nucleotide levels in cellular extracts", "setting": "[1]; [7]", "value": 4.00, "unit": "pmol/million cells"},
      {"measurement": "Major metabolites observed in cellular extracts (% of total radioactivity)", "setting": "[1]; [7]", "value": "9.04 % of total radioactivity"},
      {"measurement": "2′-C-methyl guanosine nucleotide levels in cellular extracts", "setting": "[1]; human hepatocytes Hu775, 10 μM [^14C]-2′-C-methyl guanosine, 0 h", "value": 0, "unit": "pmol/million cells"},
      {"measurement": "2′-C-methyl guanosine nucleotide levels in cellular extracts", "setting": "[1]; human hepatocytes Hu775, 10 μM [^14C]-2′-C-methyl guanosine, 1 h", "value": 2.90, "unit": "pmol/million cells"},
      {"measurement": "2′-C-methyl guanosine nucleotide levels in cellular extracts", "setting": "[1]; human hepatocytes Hu775, 10 μM [^14C]-2′-C-methyl guanosine, 4 h", "value": 10.5, "unit": "pmol/million cells"},
      {"measurement": "2′-C-methyl guanosine nucleotide levels in cellular extracts", "setting": "[1]; human hepatocytes Hu775, 10 μM [^14C]-2′-C-methyl guanosine, 8 h", "value": 15.0, "unit": "pmol/million cells"},
      {"measurement": "2′-C-methyl guanosine nucleotide levels in cellular extracts", "setting": "[1]; human hepatocytes Hu775, 10 μM [^14C]-2′-C-methyl guanosine, 24 h", "value": 50.0, "unit": "pmol/million cells"},
      {"measurement": "2′-C-methyl guanosine nucleotide levels in cellular extracts", "setting": "[1]; human hepatocytes Hu775, 10 μM [^14C]-Compound 1, 0 h", "value": 0, "unit": "pmol/million cells"},
      {"measurement": "2′-C-methyl guanosine nucleotide levels in cellular extracts", "setting": "[1]; human hepatocytes Hu775, 10 μM [^14C]-Compound 1, 1 h", "value": 7.10, "unit": "pmol/million cells"},
      {"measurement": "2′-C-methyl guanosine nucleotide levels in cellular extracts", "setting": "[1]; human hepatocytes Hu775, 10 μM [^14C]-Compound 1, 4 h", "value": 38.4, "unit": "pmol/million cells"},
      {"measurement": "2′-C-methyl guanosine nucleotide levels in cellular extracts", "setting": "[1]; human hepatocytes Hu775, 10 μM [^14C]-Compound 1, 8 h", "value": 55, "unit": "pmol/million cells"},
      {"measurement": "2′-C-methyl guanosine nucleotide levels in cellular extracts", "setting": "[1]; human hepatocytes Hu775, 10 μM [^14C]-Compound 1, 24 h", "value": 161, "unit": "pmol/million cells"}
    ]}
  ]
}
